Reference: article PMC3356383, “Efficacious Intermittent Dosing of a Novel JAK2 Inhibitor in Mouse Models of Polycythemia Vera” (PLoS ONE, 2012)

Tests used:
JAK2 (JH1) WT = molecular target: T1, JAK2 (JH1) WT (Homo sapiens, UniProt O60674); test: JAK2 enzyme assay, HTRF detection; format: biochemical
T1 construct: JAK2, 25 pM enzyme (JH1, JH1–JH2^wt, JH1–JH2^V617F domains)
Experimental: (§1) JAK1, JAK2, JAK3, and TYK2 kinase activity assays were performed as described previously using HTRF detection technology and the peptide substrate amino hexanoyl biotin-EQEDEPEGDYFEWLE-NH2. Each reaction was incubated between 60 and 80 min at room temperature. Final conditions were as follows: JAK1, 400 pM enzyme, Hepes pH 7.5, 10 mM MgCl2, 0.01% Brij-35, 1 mM EGTA, 0.1 mg/ml BSA), 2 mM DTT, 2 µM peptide substrate, 25 µM MgATP, 5% DMSO and the desired concentration of subject compound; JAK2, 25 pM enzyme (JH1, JH1–JH2^wt, JH1–JH2^V617F domains), 2 µM peptide substrate, 15 µM MgATP, 5 mM MgCl2, 100 mM NaCl, 2 mM DTT, 0.1 mg/ml BSA, 50 mM Tris (pH 7.4), 5% DMSO and the desired concentration of subject compound; JAK3, 250 pM enzyme, 50 mM Hepes pH 7.5, 10 mM MgCl2, 0.01% Brij-35, 1 mM EGTA, 0.1 mg/ml BSA), 2 mM DTT, 2.0 µM peptide substrate, 25 µM MgATP, 5% DMSO, and the desired concentration of subject compound; TYK2, 125 pM enzyme, 50 mM Hepes pH 7.5, 10 mM MgCl2, 0.01% Brij-35, 1 mM EGTA, 0.1 mg/ml BSA, 2 mM DTT, 2.0 µM peptide substrate, 15 µM MgATP, 5% DMSO and the desired concentration of subject compound.

JAK2 (JH1–JH2) V617F = molecular target: T2, JAK2 (JH1–JH2) V617F (Homo sapiens, UniProt O60674, V617F); test: JAK2 enzyme assay, HTRF detection; format: biochemical; details: kinase activity, mean, n = 3, read-out: IC50, cell-free JAK2 (JH1–JH2) V617F
T2 construct: JAK2, 25 pM enzyme (JH1, JH1–JH2^wt, JH1–JH2^V617F domains)
T2 sequence (O60674 532-1132 V617F limits assumed): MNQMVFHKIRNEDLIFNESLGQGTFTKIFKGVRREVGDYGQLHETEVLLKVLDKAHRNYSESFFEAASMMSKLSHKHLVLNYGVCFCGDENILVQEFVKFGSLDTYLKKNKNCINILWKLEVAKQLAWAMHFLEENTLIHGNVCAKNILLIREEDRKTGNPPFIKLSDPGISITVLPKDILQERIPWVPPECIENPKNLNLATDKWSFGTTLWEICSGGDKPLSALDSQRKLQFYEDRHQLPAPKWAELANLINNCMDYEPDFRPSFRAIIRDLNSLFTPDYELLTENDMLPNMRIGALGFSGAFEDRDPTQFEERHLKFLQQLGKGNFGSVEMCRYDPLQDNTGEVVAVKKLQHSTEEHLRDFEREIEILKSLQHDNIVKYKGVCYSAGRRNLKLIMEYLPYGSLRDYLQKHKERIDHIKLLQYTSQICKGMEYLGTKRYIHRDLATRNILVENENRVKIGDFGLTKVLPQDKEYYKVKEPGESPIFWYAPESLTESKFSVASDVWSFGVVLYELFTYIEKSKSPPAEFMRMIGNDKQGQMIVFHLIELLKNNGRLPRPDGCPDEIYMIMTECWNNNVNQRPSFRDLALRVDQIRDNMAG
Experimental: as §1

JAK2 (JH1–JH2) WT = molecular target: T3, JAK2 (JH1–JH2) WT (Homo sapiens, UniProt O60674); test: JAK2 enzyme assay, HTRF detection; format: biochemical; details: kinase activity, mean, n = 3, read-out: IC50, cell-free JAK2 (JH1–JH2) WT
T3 construct: JAK2, 25 pM enzyme (JH1, JH1–JH2^wt, JH1–JH2^V617F domains)
T3 sequence (O60674 532-1132 limits assumed): as the sequence (O60674 532-1132 V617F limits assumed) above, with F86V counted along it
Experimental: as §1

TYK2 (JH1) = molecular target: T4, TYK2 (JH1) (Homo sapiens, UniProt P29597); test: TYK2 enzyme assay, HTRF detection; format: biochemical
T4 construct: TYK2 (JH1)
T4 sequence (P29597 897-1176 limits assumed, species assumed): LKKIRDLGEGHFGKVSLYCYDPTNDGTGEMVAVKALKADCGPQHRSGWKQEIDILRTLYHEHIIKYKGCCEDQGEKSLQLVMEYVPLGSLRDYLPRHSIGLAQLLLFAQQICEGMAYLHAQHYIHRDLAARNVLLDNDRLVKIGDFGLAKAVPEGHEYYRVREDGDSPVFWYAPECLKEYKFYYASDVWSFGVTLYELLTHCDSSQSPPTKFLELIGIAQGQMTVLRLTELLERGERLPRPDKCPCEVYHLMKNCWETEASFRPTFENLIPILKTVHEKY
Experimental: as §1

JAK1 (JH1) = molecular target: T5, JAK1 (JH1) (Homo sapiens, UniProt P23458); test: JAK1 enzyme assay, HTRF detection; format: biochemical
T5 construct: JAK1 (JH1)
T5 sequence (P23458 875-1153 limits assumed, species assumed): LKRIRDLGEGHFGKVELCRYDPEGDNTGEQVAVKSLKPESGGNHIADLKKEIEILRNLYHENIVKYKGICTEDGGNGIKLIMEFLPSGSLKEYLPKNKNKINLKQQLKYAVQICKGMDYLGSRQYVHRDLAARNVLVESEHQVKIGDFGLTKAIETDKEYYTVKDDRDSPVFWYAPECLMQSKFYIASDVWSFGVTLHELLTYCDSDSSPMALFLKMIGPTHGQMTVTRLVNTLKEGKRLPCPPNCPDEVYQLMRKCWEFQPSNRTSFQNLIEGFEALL
Experimental: as §1

Ret = test: Kinase profiling (Millipore); format: biochemical; details: IC50s measured at ATP Km, fold increase relative to JAK2
Experimental: (§2) Kinase profiling was conducted by Millipore (Billerica, MA).
(§3) Supplementary file pone.0037207.s003.doc: Table S1 Recombinant Kinase Selectivity Profile of MRLB-11055. IC50s measured at ATP Km, and fold increase relative to JAK2 is reported. (DOC) Click here for additional data file.

TrkA = test: Kinase profiling (Millipore); format: biochemical; details: IC50s measured at ATP Km, fold increase relative to JAK2
Experimental: as §2, §3

BaF3 (JAK2 V617F) cells = test: Cell apoptosis, ApoDirect assay; format: cell-based; details: Mus musculus, 24 hour, ApoDirect measurement of fragmented DNA, read-out: Cell apoptosis, BaF3 (JAK2 V617F) (values shown are EC50)
Experimental: (§4) Cell survival was measured by ApoDirect (BD Biosciences) assay as follows. BaF3 cells were grown at 37°C, 5% CO2, and aliquots (2 × 10^6) were treated with inhibitor (various concentration dissolved in DMSO) for 24 hours and then fixed and stained as per manufacturer protocol.

BaF3 (JAK2 WT) cells = test: Cell apoptosis, ApoDirect assay; format: cell-based; details: Mus musculus, 24 hour, EPO-stimulated, ApoDirect measurement of fragmented DNA, read-out: Cell apoptosis, BaF3 (JAK2 WT) (values shown are EC50)
Experimental: as §4

pSTAT5 = test: Acute PK/PD: pSTAT5 in peripheral blood of darbepoetin-stimulated mice; format: in vivo, C57BL/6 mice; details: Mus musculus
Experimental: C57BL/6 mice (Charles River Laboratories, Wilmington, MA) aged 4–6 weeks were dosed with MRLB-11055 in vehicle (10%v/v polysorbate 80) or with vehicle alone. All dosing was done by oral gavage (10 ml/kg body weight/day). Blood sampling and measurement of pSTAT5 in the blood of darbepoetin-stimulated mice were measured as described previously. The level of MRLB-11055 in the blood of animals was measured by diluting blood samples (10 uL) with citrate buffer (30 uL) and precipitating with acetonitrile (200 uL) containing a structural analog as internal standard. Precipitated samples were filtered, water (200 uL) was added and the sample injected onto a C18 column (Waters Atlantis T3, 2.1 mm x 30 mm). Electrospray ionization with multiple reaction monitoring was used for MS/MS detection.

[1] = test system: darbepoetin-induced polycythemia and splenomegaly; test: Darbepoetin-induced model of polycythemia; format: in vivo, C57BL/6 mice; details: 7 days
Experimental: C57BL/6 mice (Charles River Laboratories, Wilmington, MA) aged 4–6 weeks were dosed with MRLB-11055 in vehicle (10%v/v polysorbate 80) or with vehicle alone. All dosing was done by oral gavage (10 ml/kg body weight/day). Inhibition of darbepoetin-induced polycythemia and splenomegaly by MRLB-11055 was measured as described previously.

[2] = test system: JAK2V617F-Luciferase expressing cells; test: Bone marrow transplant mice expressing JAK2V617F-Luciferase (PV model); format: in vivo
Experimental: Production of retrovirus containing cDNA of JAK2 V617F fused to luciferase 2 was performed as described previously as was transplantation of bone marrow cells infected with virus into irradiated mice.
Imaging of mice expressing JAK2 V617F-Luciferase was conducted as described previously.
Measurement of the level of JAK2 V617F allele in the tissues of transplanted mice was done as described previously.
Cells were stained in PBS, 0.5% BSA with antibodies for 15 min on ice. Stained cells were acquired on a 4-laser LSR-II (BD Biosciences) and data analyzed using FlowJo software (Treestar). Dead cells were labeled with the blue fluorescent LIVE/DEAD reactive dye (Invitrogen) and excluded from the analysis.

T1 sequence (O60674 849-1124 limits assumed): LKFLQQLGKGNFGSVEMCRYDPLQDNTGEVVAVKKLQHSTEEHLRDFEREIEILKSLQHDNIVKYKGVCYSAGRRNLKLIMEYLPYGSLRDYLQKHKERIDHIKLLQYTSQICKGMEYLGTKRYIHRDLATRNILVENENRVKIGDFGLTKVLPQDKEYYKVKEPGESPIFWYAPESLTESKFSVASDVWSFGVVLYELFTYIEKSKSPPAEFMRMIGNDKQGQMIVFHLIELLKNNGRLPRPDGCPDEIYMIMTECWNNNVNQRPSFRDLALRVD

NC(=O)c1cnc(N[C@H](C2CC2)C(F)(F)F)c2c1[nH]c1cc(-c3cnc(N)nc3)ccc12 [MRLB-11055] was tested, and the “Manner of inhibition of the JH1 kinase domain” value (JAK2 (JH1) WT; data not shown) was “ATP-competitive”, the IC50 (JAK2 (JH1) WT; kinase activity, HTRF assay, mean, n = 3, read-out: IC50, cell-free JAK2 (JH1) WT) was 0.08 nM and the IC50 (JAK2 (JH1–JH2) V617F) was 0.35 nM. For the same compound, the IC50 (JAK2 (JH1–JH2) WT) was 0.78 nM, the IC50 (TYK2 (JH1); HTRF, mean, n = 3, read-out: IC50, cell-free TYK2 (JH1)) was 0.18 nM and the “Selectivity for JAK2 over Tyk2” value (TYK2 (JH1); cell-free assays) was 2 fold. The IC50 (JAK1 (JH1); HTRF, mean, n = 3, read-out: IC50, cell-free JAK1 (JH1)) was 1.5 nM, the “Selectivity for JAK2 over JAK1” value (JAK1 (JH1); cell-free assays) was 20 fold and the “Fold-Shift /JAK2, Ret” value (Ret) was 3 fold. The “Fold-Shift /JAK2, TrkA” value (TrkA) was 1 fold, the EC50 (BaF3 (JAK2 V617F) cells) was 135 nM and the EC50 (BaF3 (JAK2 WT) cells) was 260 nM. For the same compound, the inhibition at 36 mg/kg (pSTAT5; 36 mg/kg oral, maintained over 12 hours) was greater than 90%, the IC50 (pSTAT5; oral dosing, mice simultaneously injected with darbepoetin, read-out: IC50 for inhibition of pSTAT5 in peripheral blood in vivo) was 1200 nM and the “Effect on WBC” value ([1]; 5, 15, 25 and 40 mpk once daily) was “dose-dependent trend towards WBC reduction, that did not reach statistical significance”. The “Efficacy, prevention of elevated hematocrit (Hct)” value ([1]; 40 mpk orally once daily) was 76%, the “Efficacy, prevention of elevated spleen weight (SPL)” value ([1]; 40 mpk orally once daily) was 87% and the “Reduction in spleen BLI over first 3 days of treatment” value ([2]; 54 mpk oral once daily for 3 days, cycle 1) was roughly 20 fold. For the same compound, the “Spleen BLI, splenic CD71+TER119+ cells and V617F allele burden in peripheral blood” value ([2]; 54 mpk oral once daily, Day 3, no further benefit out to Day 7) was “Significant reductions in all three endpoints”, the “Spleen weight at end of second holiday period” value ([2]; 54 mpk, 2 cycles) was “normalization in spleen weight” and the “Hematocrit after 2 cycles” value ([2]; 54 mpk, 2 cycles of 3 days on, 4 days off, decreased from 53%, vehicle 53% to 56%) was 42%. The “CD71+TER119+ cells in spleen relative to vehicle controls” value ([2]; 54 mpk, end of second holiday period) was “significant reduction”, the “Level of pSTAT5 in spleens of JAK2V617F-Luciferase mice” value ([2]; 1 hour post-dose) was “significantly inhibited” and the “Increase in spleen BLI over the 4 day holiday” value ([2]; 4 days after 3 days of 54 mpk, cycle 1) was roughly 4 fold. The “Spleen BLI after holiday, fold less than pre-treatment levels” value ([2]; end of cycle 1 (3 days on, 4 days off), 54 mpk) was “about 5 fold”.
